Laboratory results from patent US20060063932A1, “Aminoalkylpyrrolidine serotonin receptor ligands and compositions, their pharmaceutical uses, and methods for their synthesis” (priority 2000, published 2006).
Like-named read-outs stand apart in the source and are kept apart here.

How the values were obtained:
[1] = biological target: T1, human 5-HT6 (h5-HT6) receptors (Homo sapiens, UniProt P50406); test: Competition radioligand binding, h5-HT6 ([3H]LSD); conditions: membranes of HEK-293 cells, 1 hr RT
T1 construct: purchased Receptor Biology, Inc. (Beltsville, Md.); host or cells: HEK-293 cells

[2] = biological target: human D2S dopamine (hD2S-DA) receptors (Homo sapiens, UniProt P14416); test: Competition radioligand binding, hD2s DA ([3H]Spiperone)
Description: (§1) Cell pellets were homogenized in approximately 50 mL of homogenization buffer (buffer A) containing: 50 mM Tris (pH 7.4), 2 mM EGTA, 0.32 M sucrose, 10 μM PMSF, 1 μg/mL leupeptin, 5 μg/mL Pepstatin A, and 5 μg/mL aprotinin using an UltraTurax homogenizer (Tekmar Company, Cincinnati, Ohio) at 80% maximum setting three times for 10 sec. Cell pellets were centrifuged at 4° C. at 1,500×g for 10 min in a Beckman GS-6R centrifuge. Pellets were resuspended in buffer A, homogenized and centrifuged as described above. Pooled supernatants were transferred to centrifuge bottles and centrifuged at 4° C. at 20,000×g for 30 min in a Beckman J2-HS centrifuge. Cell pellets were resuspended in buffer A and were centrifuged at 4° C. at 20,000×g for 30 min. Cell pellets were resuspended in buffer A and stored at −70° C. in aliquots of 2.5 mg/mL total membrane protein. Total membrane protein was assessed utilizing a BCA kit (Pierce; Rockford, Ill.).
(§2) Filters were washed three times with ice-cold phosphate-buffered saline (PBS) wash buffer containing 50 mM NaPO4 (pH 7.4), 0.9% NaCl, 2 mM MgCl2 and 0.02% NaN3. The filters were then counted using liquid scintillation in a Packard Topcount scintillation counter.
(§3) Data Analysis: Radioligand binding experiments were analyzed with Prism™ (GraphPad, San Diego, Calif.), a computer graphics and statistics program. IC50 values and Hill slopes for compounds were generated by nonlinear regression using Prism™.

human 5-HT2a receptors = human 5-HT2a receptors (Homo sapiens, UniProt P28223); test: Competition radioligand binding, h5-HT2a ([3H]Ketanserin)
Description: The 5-HT receptor binding properties of the compounds are identified by competitive radioligand binding assays wherein membranes prepared from transfected cells expressing the 5-HT receptor subtype of interest. “Binding constants” refers herein to Ki values measured by inhibition of the binding of radiolabelled ligands that are selective for the 5-HT receptor type being studied.
as §1, §2, §3

[3] = biological target: T2, human 5-HT7B (h5-HT7b) receptors (Homo sapiens, UniProt P34969); test: Competition radioligand binding, h5-HT7b ([3H]5-CT); conditions: membranes of HEK 293 cells, 2 hr 37° C., read-out: Ki (nM) 5-HT7
T2 construct: expressed in transfected cells

human 5-HT1a receptors = biological target: T3, human 5-HT1a receptors (Homo sapiens, UniProt P08908); test: Competition radioligand binding, h5-HT1a ([3H]5-CT); conditions: membranes of CHO K1 cells, 1 hr RT
T3 construct: expressed in transfected cells; host or cells: CHO K1 cells
T3 sequence (P08908 1-422): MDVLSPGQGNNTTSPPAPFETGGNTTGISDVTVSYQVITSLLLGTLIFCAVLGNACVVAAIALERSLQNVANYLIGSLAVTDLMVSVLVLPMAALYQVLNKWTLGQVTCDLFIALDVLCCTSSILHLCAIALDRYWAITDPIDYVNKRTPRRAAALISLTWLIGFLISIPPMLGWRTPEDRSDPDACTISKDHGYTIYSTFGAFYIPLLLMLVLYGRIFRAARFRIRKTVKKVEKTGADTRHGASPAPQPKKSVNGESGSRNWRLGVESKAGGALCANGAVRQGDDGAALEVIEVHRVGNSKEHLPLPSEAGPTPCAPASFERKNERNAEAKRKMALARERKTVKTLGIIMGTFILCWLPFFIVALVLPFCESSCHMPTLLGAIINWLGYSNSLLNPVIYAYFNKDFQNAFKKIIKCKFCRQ

[4] = read-out: Ki (nM) D2, membranes of A9 L cells, [3H]Spiperone, 2 hr RT
[5] = read-out: Ki (nM) 5-HT2A, membranes of CHO K1 cells, [3H]Ketanserin, 1 hr 37° C.

Chain of human 5-HT2a receptors (P28223 whole entry): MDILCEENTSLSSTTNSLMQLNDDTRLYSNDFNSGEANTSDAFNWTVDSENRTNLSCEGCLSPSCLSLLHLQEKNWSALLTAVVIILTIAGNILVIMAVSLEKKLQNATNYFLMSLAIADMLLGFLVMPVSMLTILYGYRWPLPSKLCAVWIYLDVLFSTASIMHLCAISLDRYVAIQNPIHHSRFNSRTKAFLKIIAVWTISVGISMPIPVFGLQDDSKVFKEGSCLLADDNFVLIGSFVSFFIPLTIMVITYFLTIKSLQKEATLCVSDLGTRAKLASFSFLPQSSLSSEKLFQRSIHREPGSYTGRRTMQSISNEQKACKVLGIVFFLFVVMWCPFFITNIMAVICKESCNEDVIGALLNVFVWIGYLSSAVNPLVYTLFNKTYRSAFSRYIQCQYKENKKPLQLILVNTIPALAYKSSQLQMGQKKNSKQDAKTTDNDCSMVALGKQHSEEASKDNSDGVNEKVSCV
T2 sequence (P34969 1-432 limits assumed): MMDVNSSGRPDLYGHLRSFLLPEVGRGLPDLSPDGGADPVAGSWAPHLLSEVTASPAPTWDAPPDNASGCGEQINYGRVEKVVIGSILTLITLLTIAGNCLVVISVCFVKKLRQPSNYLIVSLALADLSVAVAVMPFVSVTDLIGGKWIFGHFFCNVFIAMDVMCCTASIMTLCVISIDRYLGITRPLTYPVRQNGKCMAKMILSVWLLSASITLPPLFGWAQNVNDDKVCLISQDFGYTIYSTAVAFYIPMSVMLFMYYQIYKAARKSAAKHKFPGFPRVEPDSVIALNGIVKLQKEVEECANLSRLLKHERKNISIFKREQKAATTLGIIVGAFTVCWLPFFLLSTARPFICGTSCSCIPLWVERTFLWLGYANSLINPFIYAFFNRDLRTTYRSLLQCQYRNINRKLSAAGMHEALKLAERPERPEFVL
Chain of human D2S dopamine (hD2S-DA) receptors (P14416 1-414 isoform P14416-2): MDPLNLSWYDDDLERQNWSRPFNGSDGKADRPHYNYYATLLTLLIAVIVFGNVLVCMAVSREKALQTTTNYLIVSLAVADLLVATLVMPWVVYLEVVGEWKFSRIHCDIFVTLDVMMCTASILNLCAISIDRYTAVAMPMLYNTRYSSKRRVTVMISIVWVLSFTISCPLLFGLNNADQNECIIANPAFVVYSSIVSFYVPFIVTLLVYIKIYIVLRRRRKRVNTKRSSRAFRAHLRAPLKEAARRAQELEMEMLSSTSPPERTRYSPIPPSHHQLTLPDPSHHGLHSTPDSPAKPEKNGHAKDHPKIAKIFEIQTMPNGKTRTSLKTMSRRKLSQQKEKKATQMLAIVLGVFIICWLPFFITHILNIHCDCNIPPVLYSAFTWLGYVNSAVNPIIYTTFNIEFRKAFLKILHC
T1 sequence (P50406 whole entry): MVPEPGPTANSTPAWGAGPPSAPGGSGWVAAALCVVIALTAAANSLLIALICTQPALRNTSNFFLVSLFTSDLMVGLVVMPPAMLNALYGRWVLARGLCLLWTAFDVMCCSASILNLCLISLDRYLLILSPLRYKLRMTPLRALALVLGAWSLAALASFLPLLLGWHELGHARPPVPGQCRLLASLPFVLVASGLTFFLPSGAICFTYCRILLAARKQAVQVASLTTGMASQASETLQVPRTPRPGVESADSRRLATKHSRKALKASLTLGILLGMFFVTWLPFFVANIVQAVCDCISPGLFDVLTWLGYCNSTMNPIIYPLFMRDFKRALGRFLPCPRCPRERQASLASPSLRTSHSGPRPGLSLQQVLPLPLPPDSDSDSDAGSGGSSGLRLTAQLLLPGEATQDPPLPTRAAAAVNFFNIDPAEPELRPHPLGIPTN

| Ki [1] | Ki [2] | Ki (human 5-HT2a receptors) | Ki [3] | Ki (human 5-HT1a receptors) | Molecule | Ki [2, 4] | Ki (human 5-HT2a receptors; [5]) |
| --- | --- | --- | --- | --- | --- | --- | --- |
| 41 nM | 110 nM | 20 nM | 9.9 nM |  | Cc1ccc(CN(CCC2CCCN2C)Cc2ccc(C)cc2)cc1 (racemic) [Example 4] |  |  |
| 42 nM |  | 39 nM | 4.7 nM | 540 nM | CN1CCCC1CCN(Cc1ccc(Cl)cc1)Cc1ccc(Cl)cc1 (racemic) [Example 5] |  |  |
| 74 nM | 360 nM |  | 24 nM |  | CN1CCCC1CCN(Cc1ccccc1)Cc1ccccc1 (racemic) [Example 12] |  |  |
| 53 nM | 200 nM | 29 nM | 80 nM | 1780 nM | Cc1ccc(CN(CC[C@H]2CCCN2C)Cc2ccc(C)cc2)cc1 [Example 6] |  |  |
| 63 nM | 221 nM | 17 nM | 2.1 nM | 2850 nM | Cc1ccc(CN(CC[C@@H]2CCCN2C)Cc2ccc(C)cc2)cc1 [Example 7] |  |  |
|  |  |  | 5100 nM |  | CN1CCC[C@H]1CCN(Cc1cccc(C(N)=O)c1)Cc1cccc(C(N)=O)c1 [Example 9] |  |  |
|  |  |  | 1000 nM |  | CN1CCC[C@@H]1CCN(Cc1cccc(O)c1)Cc1cccc(O)c1 [Example 10] |  |  |
| 39 nM | 220 nM | 44 nM | 8.3 nM | > 4000 nM | Cc1ccc(CN(CC[C@@H]2CCCN2C)Cc2ccccc2)cc1 [Example 22] |  |  |
| 47 nM | 160 nM | 16 nM | 28 nM | > 4000 nM | CN1CCCC1CCN(Cc1ccccc1)Cc1c(Cl)cccc1Cl (stereo not shown) [Example 23] |  |  |
| 72 nM | 410 nM | 20 nM | 31 nM | > 4000 nM | Cc1ccc(C)c(CN(CCC2CCCN2C)Cc2ccccc2)c1 (stereo not shown) [Example 24] |  |  |
| 99 nM | 570 nM | 87 nM | 45 nM | > 4000 nM | CN1CCCC1CCN(Cc1ccccc1)Cc1cccc2ccccc12 (stereo not shown) [Example 25] |  |  |
| 20 nM | 400 nM |  | 18 nM |  | CN1CCCC1CCN(Cc1ccccc1)Cc1ccc(F)cc1 (stereo not shown) [Example 26] |  |  |
|  |  |  | 150 nM |  | CSc1ccc(CN(CCC2CCCN2C)Cc2ccccc2)cc1 (stereo not shown) [Example 27] |  |  |
| 91 nM | 270 nM | 73 nM | 19 nM | > 4000 nM | CCc1ccc(CN(CCC2CCCN2C)Cc2ccccc2)cc1 (stereo not shown) [Example 28] |  |  |
| 33 nM | 1010 nM | 69 nM | 23 nM | > 4000 nM | CN1CCCC1CCN(Cc1ccccc1)Cc1cccc(O)c1 (stereo not shown) [Example 29] |  |  |
| 53 nM | 660 nM | 60 nM | 20 nM | > 4000 nM | Cc1cccc(CN(CCC2CCCN2C)Cc2ccccc2)c1 (stereo not shown) [Example 30] |  |  |

| Ki [1] | Ki [2] | Ki (human 5-HT2a receptors) | Ki [3] | Ki (human 5-HT1a receptors) | Molecule | Ki [2, 4] | Ki (human 5-HT2a receptors; [5]) |
| --- | --- | --- | --- | --- | --- | --- | --- |
| 71 nM | 850 nM | 11 nM | 36 nM |  | CC(C)c1ccc(CN(CCC2CCCN2C)Cc2ccccc2)cc1 (stereo not shown) [Example 32] |  |  |
| 35 nM | 780 nM | 51 nM | 56 nM | > 4000 nM | COc1cccc(CN(CCC2CCCN2C)Cc2ccccc2)c1 (stereo not shown) [Example 33] |  |  |
| 315 nM | 1750 nM | 61 nM | 8.6 nM | 825 nM | CN1CCC[C@H]1CCN(Cc1cccc(O)c1)Cc1ccc2ccccc2c1 [Example 34] |  |  |
|  |  |  | 200 nM |  | CN1CCC[C@H]1CCN(CCc1ccccc1)Cc1ccc(Cl)cc1 [Example 38] |  |  |
| 49 nM | 420 nM | 85 nM | 0.91 nM | 3920 nM | CN1CCC[C@H]1CCN(Cc1ccc(Cl)cc1)Cc1ccc(O)cc1Cl [Example 39] |  |  |
| 132 nM | 1110 nM | 23 nM | 6.5 nM | > 4000 nM | CSc1ccc(CN(CC[C@@H]2CCCN2C)Cc2ccc(Cl)cc2)cc1 [Example 40] |  |  |
| 83 nM | 1480 nM | 39 nM | 6.6 nM | > 4000 nM | COc1cccc(CN(CC[C@@H]2CCCN2C)Cc2ccc(Cl)cc2)c1 [Example 41] |  |  |
| 54 nM | > 2500 nM | 88 nM | 21 nM | > 4000 nM | Cc1cc(CN(CC[C@@H]2CCCN2C)Cc2ccc(Cl)cc2)oc1C [Example 42] |  |  |
|  |  |  | 180 nM |  | CN1CCC[C@H]1CCN(Cc1ccc(Cl)cc1)CC1CC=CCC1 (stereo partly shown) [Example 43] |  |  |
|  |  |  | 260 nM |  | CN1CCC[C@H]1CCN(Cc1ccc(Cl)cc1)Cc1ccccc1Cl [Example 44] |  |  |
| 38 nM | 250 nM | 27 nM | 12 nM | > 4000 nM | CN1CCC[C@H]1CCN(Cc1ccc(Cl)cc1)Cc1ccc2c(c1)Cc1ccccc1-2 [Example 45] |  |  |
| 350 nM | 1110 nM | 42 nM | 80 nM | 3850 nM | CC(C)c1ccc(CN(CC[C@@H]2CCCN2C)Cc2ccc(Cl)cc2)cc1 [Example 46] |  |  |
|  |  |  | 200 nM |  | CN1CCC[C@H]1CCN(Cc1ccc(Cl)cc1)Cc1ccc(O)c([N+](=O)[O-])c1 [Example 51] |  |  |
| 310 nM | 1110 nM | 76 nM | 27 nM | > 4000 nM | Cc1c(CN(CC[C@@H]2CCCN2C)Cc2ccc(Cl)cc2)sc2ccccc12 [Example 52] |  |  |
|  |  |  | 161 nM |  | C[C@H](CN(CC[C@@H]1CCCN1C)Cc1ccc(Cl)cc1)c1ccccc1 [Example 53] |  |  |
|  |  |  | 170 nM |  | CN1CCC[C@H]1CN(Cc1ccccc1)Cc1ccccc1 [Example 55, (S)-Di-(benzyl)-2-aminomethyl-N-methylpyrrolidine] |  |  |

| Molecule | Ki [1] | Ki [2] | Ki (human 5-HT2a receptors) | Ki [3] | Ki (human 5-HT1a receptors) | Ki [2, 4] | Ki (human 5-HT2a receptors; [5]) |
| --- | --- | --- | --- | --- | --- | --- | --- |
| CN1CCCC1CCN(Cc1cccc(O)c1)Cc1cccc(O)c1 (racemic) [Example 3] | 2640 nM | > 2500 nM | 2000 nM | 49 nM |  |  |  |
| CN1CCCC1CCN(CCc1ccccc1)CCc1ccccc1 (racemic) [Example 8] |  |  |  | 3200 nM |  |  |  |
| CN1CCC[C@H]1CCN(Cc1cccc(O)c1)Cc1cccc(O)c1 [Example 2, (S)-Di-(3-hydroxybenzyl)-2-aminoethyl-N-methylpyrrolidine] | 640 nM |  |  | 9.7 nM | 3500 nM | > 2500 nM | 500 nM |
| CN1CCC[C@H]1CCN(Cc1ccc(O)cc1)Cc1cccc(O)c1 [Example 20] | 880 nM | > 2500 nM | 540 nM | 8.8 nM | > 4000 nM |  |  |
| CN1CCCC1CCN(Cc1ccccc1)Cc1ccc(C(C)(C)C)cc1 (stereo not shown) [Example 31] | 45 nM | 1210 nM | 130 nM | 66 nM |  |  |  |
| Cc1cc(CN(CC[C@@H]2CCCN2C)Cc2cccc(O)c2)cc(C)c1O [Example 35] | 2710 nM | > 2500 nM | 3470 nM | 17 nM | > 4000 nM |  |  |
| COc1ccc(CN(CC[C@@H]2CCCN2C)Cc2cccc(O)c2)cc1 [Example 36] | 1580 nM | 2530 nM | 200 nM | 49 nM | > 4000 nM |  |  |
| CN1CCC[C@H]1CCN(Cc1ccc(C(C)(C)C)cc1)Cc1cccc(O)c1 [Example 37] | 375 nM | 2300 nM | 160 nM | 66 nM | > 4000 nM |  |  |
| CN1CCC[C@H]1CCN(Cc1ccc(Cl)cc1)Cc1ccc(O)c(Cl)c1 [Example 47] | 110 nM | 1010 nM | 180 nM | 2.7 nM | > 4000 nM |  |  |
| Cc1cc(CN(CC[C@@H]2CCCN2C)Cc2ccc(Cl)cc2)cc(C)c1O [Example 48] | 71 nM | > 2500 nM | 233 nM | 4.2 nM | 3070 nM |  |  |
| CN1CCC[C@H]1CCN(Cc1ccc(O)cc1)Cc1ccc(Cl)cc1 [Example 49] | 177 nM | 1310 nM | 148 nM | 1.9 nM | > 4000 nM |  |  |
| COc1cc(CN(CC[C@@H]2CCCN2C)Cc2ccc(Cl)cc2)ccc1O [Example 50] | 280 nM | > 2500 nM | 180 nM | 3.2 nM | > 4000 nM |  |  |
| CCN1CCC[C@H]1CCN(Cc1ccc(C)cc1)Cc1ccc(C)cc1 [Example 54, (S)-Di-(4-methylbenzyl)aminoethyl-N-ethylpyrrolidine] | 300 nM |  |  | 63 nM | 610 nM | 380 nM | 56 nM |
| (S)-(3-Hydroxybenzyl)(4-chlorobenzyl)-2-aminoethyl-N-methylpyrrolidine [Example 19] | 210 nM |  |  | 2.7 nM | > 4000 nM | 1580 nM | 74 nM |
